Data taken from PMC4490784, “Compensatory induction of MYC expression by sustained CDK9 inhibition via a BRD4-dependent mechanism” (eLife, 2015).

Key:
CDK9 = CDK9 (Homo sapiens, UniProt P50750); test: biochemical binding or enzymatic assay; set-up: purchased Invitrogen
Description: (§1) Finally, the selectivity profile of i-CDK9 toward other non-CDK kinases was also assessed using the KINOMEscan platform. […] Except for CLK4, for which no suitable assay was available, the rest of the kinases plus a selected group of others were re-examined for the concentration-dependent effect of i-CDK9 in either functional kinase assays or binding assays. […] Indeed, it has recently been reported that DYRK1A acts as a Pol II CTD Kinase at its target gene promoters ([Di Vona et al., 2015]).

[1] = biological target: JAK2(JH1domain-catalytic) (Homo sapiens, UniProt O60674); test: KINOMEscan binding assay; set-up: JAK2(JH1domain-catalytic); purchased DiscoveRx KINOMEscan
Description: As there are no commercial or in-house kinase assays available for CDK3, CDK5, CDK11 and CDK13, the inhibitory abilities of i-CDK9 toward these CDKs were thus evaluated in the DiscoveRx KINOMEscan assay, which is based on a proprietary active site-directed competition-binding platform ([Fabian et al., 2005]).
The inhibitory activity of i-CDK9 for CDK1-CycB (Upstate/Millipore), CDK2-CycA (Invitrogen), CDK4-CycD1 (Novartis), CDK7-CycH-MAT1 (Invitrogen), and CDK9-CycT1 (Invitrogen) was assessed in the AlphaScreen (PerkinElmer, Inc)-based kinase assay developed at Novartis. Briefly, each CDK–cyclin pair was pre-incubated with i-CDK9 for 15 min, followed by addition of kinase substrates (ELK for CDK1 and CDK2, RB for CDK4, and CDK7tide for CDK7 and CDK9). The mixture was incubated at room temperature for additional 4–5 hr. The reaction was stopped and read on Envision (PerkinElmer, Inc). Selectivity against a large panel of over 400 kinases was evaluated using the KINOMEscan platform (DiscoveRx, CA) employing a proprietary active site-directed competition binding assay ([Fabian et al., 2005]). The assay was conducted at two different concentrations of i-CDK9 (1 and 10 µM) by DiscoveRx.

ZAP70 = biological target: T1, ZAP70 (Homo sapiens, UniProt P43403); test: biochemical binding or enzymatic assay
T1 construct: purchased DiscoveRx KINOMEscan
T1 sequence (P43403 1-619): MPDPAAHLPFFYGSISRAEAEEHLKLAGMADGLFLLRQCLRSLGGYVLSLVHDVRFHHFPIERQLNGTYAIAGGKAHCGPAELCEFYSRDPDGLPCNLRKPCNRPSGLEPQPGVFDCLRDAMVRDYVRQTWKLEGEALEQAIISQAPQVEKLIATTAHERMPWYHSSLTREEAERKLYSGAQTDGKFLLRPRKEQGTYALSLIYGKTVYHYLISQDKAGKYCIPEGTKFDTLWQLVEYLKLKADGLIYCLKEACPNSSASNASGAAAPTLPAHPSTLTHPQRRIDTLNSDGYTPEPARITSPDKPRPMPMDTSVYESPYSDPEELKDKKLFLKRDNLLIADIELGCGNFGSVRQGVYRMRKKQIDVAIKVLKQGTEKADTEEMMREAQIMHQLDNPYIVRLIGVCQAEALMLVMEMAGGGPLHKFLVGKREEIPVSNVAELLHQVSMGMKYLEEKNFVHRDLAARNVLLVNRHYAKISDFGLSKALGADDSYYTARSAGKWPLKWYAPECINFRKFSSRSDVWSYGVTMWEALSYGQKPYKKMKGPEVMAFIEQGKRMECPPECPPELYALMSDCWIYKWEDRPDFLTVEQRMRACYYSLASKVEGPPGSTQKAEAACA
Description: as §1

FAK = biological target: T2, FAK (Homo sapiens, UniProt Q05397); test: biochemical binding or enzymatic assay; conditions: Novartis
T2 construct: purchased DiscoveRx KINOMEscan
Description: as §1

CSK = biological target: T3, CSK (Homo sapiens, UniProt P41240); test: biochemical binding or enzymatic assay; conditions: Novartis
T3 construct: purchased DiscoveRx KINOMEscan
Description: as §1

recombinant CDK12-CycK = biological target: T4, recombinant CDK12-CycK (Homo sapiens, UniProt Q9NYV4); test: In vitro kinase reaction with baculovirus-produced recombinant kinase (SignalChem); format: biochemical
T4 construct: purchased SignalChem; host or cells: baculovirus-produced

[2] = biological target: JAK1(JH1domain-catalytic) (Homo sapiens, UniProt P23458); test: biochemical binding or enzymatic assay; set-up: JAK1(JH1domain-catalytic); conditions: Novartis
Description: as §1

ROS1 = biological target: T5, ROS1 (Homo sapiens, UniProt P08922); test: KINOMEscan binding assay; conditions: read-out: % Retention on Solid Support
T5 construct: purchased DiscoveRx KINOMEscan
Summary of the method: (§2)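 We profiled i-CDK9 by active-site-directed competitive binding, testing 1 µM and 10 µM against over 400 kinases.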

MAP4K5 = biological target: T6, MAP4K5 (Homo sapiens, UniProt Q9Y4K4); test: KINOMEscan binding assay; conditions: read-out: % Retention on Solid Support
T6 construct: purchased DiscoveRx KINOMEscan
Summary of the method: as §2

BMPR2 = biological target: T7, BMPR2 (Homo sapiens, UniProt Q13873); test: KINOMEscan binding assay
T7 construct: purchased DiscoveRx KINOMEscan
Summary of the method: as §2

IGF1R = biological target: T8, IGF1R (Homo sapiens, UniProt P08069); test: KINOMEscan binding assay; conditions: read-out: % Retention on Solid Support
T8 construct: purchased DiscoveRx KINOMEscan
Summary of the method: as §2

ANKK1 = biological target: T9, ANKK1 (Homo sapiens, UniProt Q8NFD2); test: KINOMEscan binding assay; conditions: read-out: % Retention on Solid Support
T9 construct: purchased DiscoveRx KINOMEscan
Summary of the method: as §2

AURKA = biological target: T10, AURKA (Homo sapiens, UniProt O14965); test: KINOMEscan binding assay; conditions: read-out: % Retention on Solid Support
T10 construct: purchased DiscoveRx KINOMEscan
T10 sequence (O14965 1-403): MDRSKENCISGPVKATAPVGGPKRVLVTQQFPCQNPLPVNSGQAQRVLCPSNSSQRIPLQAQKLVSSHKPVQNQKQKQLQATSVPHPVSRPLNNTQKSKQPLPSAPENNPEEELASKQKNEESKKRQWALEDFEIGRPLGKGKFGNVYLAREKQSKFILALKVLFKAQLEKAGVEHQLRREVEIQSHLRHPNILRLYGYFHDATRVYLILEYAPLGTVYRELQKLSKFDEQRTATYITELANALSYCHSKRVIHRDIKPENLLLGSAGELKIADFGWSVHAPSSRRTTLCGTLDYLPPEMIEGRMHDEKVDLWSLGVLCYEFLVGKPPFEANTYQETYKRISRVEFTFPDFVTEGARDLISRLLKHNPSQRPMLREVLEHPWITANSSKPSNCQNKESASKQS
Summary of the method: as §2

BTK = biological target: T11, BTK (Homo sapiens, UniProt Q06187); test: KINOMEscan binding assay
T11 construct: purchased DiscoveRx KINOMEscan
Summary of the method: as §2

Sequence of CDK9 (P50750 whole entry): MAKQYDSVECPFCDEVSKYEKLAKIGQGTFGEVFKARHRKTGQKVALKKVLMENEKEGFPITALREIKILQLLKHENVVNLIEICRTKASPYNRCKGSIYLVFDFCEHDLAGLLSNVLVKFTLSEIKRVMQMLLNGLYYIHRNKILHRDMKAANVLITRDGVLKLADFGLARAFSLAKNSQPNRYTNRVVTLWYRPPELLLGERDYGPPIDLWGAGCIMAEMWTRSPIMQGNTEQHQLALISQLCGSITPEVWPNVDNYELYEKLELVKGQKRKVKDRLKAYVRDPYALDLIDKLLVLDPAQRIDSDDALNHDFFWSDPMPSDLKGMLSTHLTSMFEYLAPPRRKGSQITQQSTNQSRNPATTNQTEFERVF
Sequence of CDK9 (O60563 whole entry partner): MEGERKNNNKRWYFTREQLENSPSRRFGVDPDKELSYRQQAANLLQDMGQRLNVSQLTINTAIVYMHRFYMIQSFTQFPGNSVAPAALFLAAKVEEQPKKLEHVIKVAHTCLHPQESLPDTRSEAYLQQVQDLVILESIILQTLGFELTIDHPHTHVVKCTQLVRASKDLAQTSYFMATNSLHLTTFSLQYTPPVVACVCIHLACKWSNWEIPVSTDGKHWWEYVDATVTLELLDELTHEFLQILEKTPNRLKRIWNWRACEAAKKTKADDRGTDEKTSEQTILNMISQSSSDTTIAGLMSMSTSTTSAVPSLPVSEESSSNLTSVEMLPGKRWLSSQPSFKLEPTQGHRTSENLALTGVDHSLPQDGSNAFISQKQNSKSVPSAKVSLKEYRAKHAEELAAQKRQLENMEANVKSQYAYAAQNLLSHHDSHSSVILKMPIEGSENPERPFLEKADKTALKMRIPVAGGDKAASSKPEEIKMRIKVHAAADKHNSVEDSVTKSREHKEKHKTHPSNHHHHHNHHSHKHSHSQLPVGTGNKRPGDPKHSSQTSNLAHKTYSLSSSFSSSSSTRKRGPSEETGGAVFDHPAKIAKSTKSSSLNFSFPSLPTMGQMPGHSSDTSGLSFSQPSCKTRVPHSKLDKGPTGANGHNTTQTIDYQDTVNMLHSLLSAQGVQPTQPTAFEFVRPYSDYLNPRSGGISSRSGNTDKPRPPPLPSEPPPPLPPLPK
T6 sequence (Q9Y4K4 whole entry): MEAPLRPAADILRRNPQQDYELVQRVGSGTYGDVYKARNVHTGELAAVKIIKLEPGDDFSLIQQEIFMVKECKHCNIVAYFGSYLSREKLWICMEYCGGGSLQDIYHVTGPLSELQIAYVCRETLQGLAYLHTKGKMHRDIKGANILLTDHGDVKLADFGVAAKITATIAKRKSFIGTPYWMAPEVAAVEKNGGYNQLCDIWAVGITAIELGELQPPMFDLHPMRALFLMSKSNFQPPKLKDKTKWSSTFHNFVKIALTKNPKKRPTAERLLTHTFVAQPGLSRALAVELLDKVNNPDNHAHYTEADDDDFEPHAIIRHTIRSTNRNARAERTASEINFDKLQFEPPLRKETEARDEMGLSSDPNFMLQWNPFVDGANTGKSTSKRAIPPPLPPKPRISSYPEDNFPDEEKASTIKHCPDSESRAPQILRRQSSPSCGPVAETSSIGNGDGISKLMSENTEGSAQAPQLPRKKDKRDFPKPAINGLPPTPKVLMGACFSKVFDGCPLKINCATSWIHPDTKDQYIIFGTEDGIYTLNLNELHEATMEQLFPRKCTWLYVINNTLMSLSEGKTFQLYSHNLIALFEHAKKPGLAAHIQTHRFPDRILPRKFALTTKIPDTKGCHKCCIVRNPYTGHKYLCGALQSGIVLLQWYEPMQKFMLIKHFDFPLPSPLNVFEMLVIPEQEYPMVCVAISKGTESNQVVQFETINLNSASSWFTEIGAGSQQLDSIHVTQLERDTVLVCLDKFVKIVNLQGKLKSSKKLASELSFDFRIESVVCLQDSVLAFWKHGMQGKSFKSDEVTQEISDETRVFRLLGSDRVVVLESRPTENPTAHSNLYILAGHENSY
Sequence of JAK2(JH1domain-catalytic) (O60674 840-1132 limits assumed): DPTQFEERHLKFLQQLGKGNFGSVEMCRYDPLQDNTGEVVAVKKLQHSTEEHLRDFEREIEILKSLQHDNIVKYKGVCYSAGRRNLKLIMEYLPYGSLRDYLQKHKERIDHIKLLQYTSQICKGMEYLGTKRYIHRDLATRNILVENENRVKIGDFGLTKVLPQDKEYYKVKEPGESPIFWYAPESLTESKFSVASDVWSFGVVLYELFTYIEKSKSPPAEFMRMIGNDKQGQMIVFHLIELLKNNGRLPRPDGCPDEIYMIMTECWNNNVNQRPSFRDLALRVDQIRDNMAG
T8 sequence (P08069 31-1367): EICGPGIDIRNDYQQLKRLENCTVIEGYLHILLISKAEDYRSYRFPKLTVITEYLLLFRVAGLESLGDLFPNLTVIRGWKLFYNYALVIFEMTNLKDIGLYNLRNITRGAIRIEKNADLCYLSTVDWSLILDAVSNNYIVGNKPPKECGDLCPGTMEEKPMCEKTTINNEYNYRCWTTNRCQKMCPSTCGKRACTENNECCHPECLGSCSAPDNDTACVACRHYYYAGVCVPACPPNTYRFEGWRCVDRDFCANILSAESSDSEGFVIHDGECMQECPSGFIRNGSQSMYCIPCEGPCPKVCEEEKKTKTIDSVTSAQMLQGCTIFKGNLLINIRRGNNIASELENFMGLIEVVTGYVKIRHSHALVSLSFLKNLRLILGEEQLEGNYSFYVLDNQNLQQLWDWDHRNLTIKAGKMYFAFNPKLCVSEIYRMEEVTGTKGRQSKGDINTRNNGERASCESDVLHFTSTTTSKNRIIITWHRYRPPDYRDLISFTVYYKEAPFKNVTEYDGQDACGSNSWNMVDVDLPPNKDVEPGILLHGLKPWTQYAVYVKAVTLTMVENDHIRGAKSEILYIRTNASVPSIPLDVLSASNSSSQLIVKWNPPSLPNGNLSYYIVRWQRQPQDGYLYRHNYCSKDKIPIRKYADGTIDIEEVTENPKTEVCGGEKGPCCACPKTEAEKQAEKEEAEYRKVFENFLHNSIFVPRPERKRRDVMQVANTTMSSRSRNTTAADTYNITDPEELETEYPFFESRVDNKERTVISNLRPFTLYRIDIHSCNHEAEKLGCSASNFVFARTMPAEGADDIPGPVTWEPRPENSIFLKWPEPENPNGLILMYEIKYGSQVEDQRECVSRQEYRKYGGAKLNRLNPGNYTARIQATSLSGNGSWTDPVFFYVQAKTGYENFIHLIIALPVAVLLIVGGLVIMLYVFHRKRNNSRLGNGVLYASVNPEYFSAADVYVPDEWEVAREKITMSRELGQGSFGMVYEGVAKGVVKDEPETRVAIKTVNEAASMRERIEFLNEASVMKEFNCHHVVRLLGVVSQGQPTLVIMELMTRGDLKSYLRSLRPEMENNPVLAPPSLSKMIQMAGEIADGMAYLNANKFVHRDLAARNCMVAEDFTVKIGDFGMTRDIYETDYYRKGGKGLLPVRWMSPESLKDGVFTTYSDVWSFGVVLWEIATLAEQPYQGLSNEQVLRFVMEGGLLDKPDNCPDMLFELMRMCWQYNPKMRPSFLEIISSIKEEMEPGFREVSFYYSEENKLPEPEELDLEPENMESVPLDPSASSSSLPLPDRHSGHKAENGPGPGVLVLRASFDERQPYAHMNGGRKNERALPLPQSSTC
T9 sequence (Q8NFD2 whole entry): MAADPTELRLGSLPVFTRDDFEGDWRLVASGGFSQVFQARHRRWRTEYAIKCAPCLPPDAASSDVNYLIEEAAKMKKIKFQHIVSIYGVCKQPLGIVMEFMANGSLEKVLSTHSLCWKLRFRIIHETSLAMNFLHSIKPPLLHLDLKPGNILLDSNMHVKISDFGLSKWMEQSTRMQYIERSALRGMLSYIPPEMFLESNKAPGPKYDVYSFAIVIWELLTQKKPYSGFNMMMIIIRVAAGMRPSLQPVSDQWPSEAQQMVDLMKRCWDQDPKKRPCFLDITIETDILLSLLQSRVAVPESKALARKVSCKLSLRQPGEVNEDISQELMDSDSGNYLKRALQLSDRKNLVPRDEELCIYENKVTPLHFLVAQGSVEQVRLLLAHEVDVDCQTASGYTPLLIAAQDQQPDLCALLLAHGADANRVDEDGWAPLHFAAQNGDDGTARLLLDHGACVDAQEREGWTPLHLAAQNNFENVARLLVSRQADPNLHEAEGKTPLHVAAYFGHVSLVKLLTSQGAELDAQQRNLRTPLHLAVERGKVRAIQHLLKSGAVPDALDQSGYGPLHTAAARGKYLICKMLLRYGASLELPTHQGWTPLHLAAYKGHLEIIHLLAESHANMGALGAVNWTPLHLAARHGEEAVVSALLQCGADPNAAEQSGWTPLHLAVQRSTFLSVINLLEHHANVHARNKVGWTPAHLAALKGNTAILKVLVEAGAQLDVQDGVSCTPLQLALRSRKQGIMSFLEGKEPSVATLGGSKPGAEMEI
T11 sequence (Q06187 whole entry): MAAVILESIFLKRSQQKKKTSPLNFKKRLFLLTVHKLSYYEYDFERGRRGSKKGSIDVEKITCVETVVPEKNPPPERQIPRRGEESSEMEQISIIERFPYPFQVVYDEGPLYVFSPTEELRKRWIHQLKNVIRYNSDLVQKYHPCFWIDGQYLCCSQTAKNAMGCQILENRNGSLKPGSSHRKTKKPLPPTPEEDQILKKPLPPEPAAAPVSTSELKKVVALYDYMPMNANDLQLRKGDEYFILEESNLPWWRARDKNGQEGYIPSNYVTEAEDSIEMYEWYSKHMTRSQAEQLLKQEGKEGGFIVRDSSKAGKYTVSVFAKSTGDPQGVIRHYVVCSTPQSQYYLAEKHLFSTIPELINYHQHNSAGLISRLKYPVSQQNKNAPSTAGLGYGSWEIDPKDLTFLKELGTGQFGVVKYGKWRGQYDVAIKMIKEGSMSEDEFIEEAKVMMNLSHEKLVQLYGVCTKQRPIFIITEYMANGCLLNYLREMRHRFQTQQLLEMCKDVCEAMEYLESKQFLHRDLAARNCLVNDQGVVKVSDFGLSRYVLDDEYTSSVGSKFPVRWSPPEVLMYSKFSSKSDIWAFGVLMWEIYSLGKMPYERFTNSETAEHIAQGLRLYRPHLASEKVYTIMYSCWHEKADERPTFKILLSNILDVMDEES

N[C@H]1CC[C@H](Nc2cc(-c3cccc(NCc4cccc(F)c4)n3)c(Cl)cn2)CC1 [i-CDK9, N2′-(trans-4-aminocyclohexyl)-5′-chloro-N6-(3-fluorobenzyl)-2,4′-bipyridine-2′,6-diamine]
IC50 (CDK9): < 0.0004 µM
fold difference between CDK9 and the next two best targets DYRK1A and DYRK1B (CDK9; selectivity): more than 100 fold
% Retention on Solid Support ([1]; 1 µM i-CDK9): 76%
% Retention on Solid Support ([1]; 10 µM i-CDK9): 84%
IC50 (ZAP70): > 10 µM
IC50 (FAK): > 10 µM
IC50 (CSK): > 10 µM
i-CDK9 concentration at which the kinase was significantly inhibited (recombinant CDK12-CycK): 640 to 1200 nM
IC50 [2]: > 10 µM
remaining binding at 1 µM (ROS1; 1 µM i-CDK9): 98%
remaining binding at 10 µM (ROS1; 10 µM i-CDK9): 100%
remaining binding at 1 µM (MAP4K5; 1 µM i-CDK9): 94%
remaining binding at 10 µM (MAP4K5; 10 µM i-CDK9): 85%
% Retention on Solid Support (BMPR2; 1 µM i-CDK9): 100%
% Retention on Solid Support (BMPR2; 10 µM i-CDK9): 100%
remaining binding at 1 µM (IGF1R; 1 µM i-CDK9): 94%
remaining binding at 10 µM (IGF1R; 10 µM i-CDK9): 100%
remaining binding at 1 µM (ANKK1; 1 µM i-CDK9): 100%
remaining binding at 10 µM (ANKK1; 10 µM i-CDK9): 100%
remaining binding at 1 µM (AURKA; 1 µM i-CDK9): 92%
remaining binding at 10 µM (AURKA; 10 µM i-CDK9): 97%
% Retention on Solid Support (BTK; 1 µM i-CDK9): 100%
% Retention on Solid Support (BTK; 10 µM i-CDK9): 100%
